According to ChEMBL document CHEMBL1125860 (J Med Chem, 1991):
Values belong to the compound of their own block, whether it stands above or below them. The source made the active and inactive calls. The rule behind the calls is not given here.

Columns and labels:
Rattus norvegicus [1] = assay: In vivo inhibition of galactitol accumulation in sciatic nerves of rat at 52 mg/kg/dayC; assay type: functional, organism-based; conditions: Sciatic nerve
[2] = target: Aldo-keto reductase family 1 member B1 (Bos taurus) (UniProt P16116); assay: In vitro % decrease of aldose reductase measured in isolated partially purified bovine lens preparations at 10e-7 M concentration
Rattus norvegicus [3] = assay: In vivo inhibition of galactitol accumulation in diaphragm of rat at 52 mg/kg/day; assay type: functional
Rattus norvegicus [4] = assay: In vivo inhibition of galactitol accumulation in sciatic nerves of rat at 16 mg/kg/day; Not significant; assay type: functional, organism-based; conditions: Sciatic nerve
Rattus norvegicus [5] = assay: In vivo inhibition of galactitol accumulation in sciatic nerves of rat at 11 mg/kg/day; Not significant; assay type: functional, organism-based; conditions: Sciatic nerve
Rattus norvegicus [6] = assay: In vivo inhibition of galactitol accumulation in diaphragm of rat at 16 mg/kg/day; assay type: functional
Rattus norvegicus [7] = assay: In vivo inhibition of galactitol accumulation in diaphragm of rat at 11 mg/kg/day; assay type: functional
Rattus norvegicus [8] = organism: Rattus norvegicus; assay: In vitro inhibition of sorbitol accumulation was measured in rat sciatic nerves incubated in the presence of 50 mM glucose at 10e-6 M concentration; assay type: functional, Sciatic nerve
Rattus norvegicus [9] = organism: Rattus norvegicus; assay: In vitro inhibition of sorbitol accumulation was measured in rat sciatic nerves incubated in the presence of 50 mM glucose at 10e-5 M concentration; assay type: functional, Sciatic nerve
[10] = target: Aldo-keto reductase family 1 member B1 (Bos taurus) (UniProt P16116); assay: In vitro % decrease of aldose reductase was measured in isolated partially purified bovine lens preparations at 10e-7 M concentration; Not active
Rattus norvegicus [11] = assay: In vivo inhibition of galactitol accumulation in diaphragm of rat at 51 mg/kg/day; assay type: functional
Rattus norvegicus [12] = assay: In vivo inhibition of galactitol accumulation in sciatic nerves of rat at 51 mg/kg/day; assay type: functional; conditions: Sciatic nerve
Rattus norvegicus [13] = assay: In vivo inhibition of galactitol accumulation in sciatic nerves of rat at 44 mg/kg/day; Not significant; assay type: functional, organism-based; conditions: Sciatic nerve
Rattus norvegicus [14] = assay: In vivo inhibition of galactitol accumulation in diaphragm of rat at 144 mg/kg; assay type: functional
Rattus norvegicus [15] = assay: In vivo inhibition of galactitol accumulation in sciatic nerves of rat at 132 mg/kg/day; assay type: functional; conditions: Sciatic nerve
Rattus norvegicus [16] = assay: In vivo inhibition of galactitol accumulation in diaphragm of rat at 132 mg/kg/day; assay type: functional
Rattus norvegicus [17] = assay: In vivo inhibition of galactitol accumulation in diaphragm of rat at 97 mg/kg/day; assay type: functional
Rattus norvegicus [18] = assay: In vivo inhibition of galactitol accumulation in sciatic nerves of rat at 97 mg/kg/day; assay type: functional; conditions: Sciatic nerve
Rattus norvegicus [19] = assay: % reduction of aldose reductase inhibition was evaluated by measuring galactitol accumulation in sciatic nerves of rat at 32 mg/kg/day; assay type: functional; conditions: Sciatic nerve
Rattus norvegicus [20] = assay: In vivo inhibition of galactitol accumulation in sciatic nerves of rat at 11 mg/kg/day; assay type: functional; conditions: Sciatic nerve
Rattus norvegicus [21] = assay: In vivo inhibition of galactitol accumulation in sciatic nerves of rat at 32 mg/kg/day; assay type: functional; conditions: Sciatic nerve
Rattus norvegicus [22] = assay: In vivo inhibition of galactitol accumulation in sciatic nerves of rat at 25 mg/kg/day; assay type: functional; conditions: Sciatic nerve
Rattus norvegicus [23] = assay: In vivo inhibition of galactitol accumulation in sciatic nerves of rat at 53 mg/kg/day; assay type: functional; conditions: Sciatic nerve
Rattus norvegicus [24] = assay: In vivo inhibition of galactitol accumulation in sciatic nerves of rat at 75 mg/kg/day; assay type: functional; conditions: Sciatic nerve
Rattus norvegicus [25] = assay: In vivo inhibition of galactitol accumulation in diaphragm of rat at 75 mg/kg/day; assay type: functional
Rattus norvegicus [26] = assay: In vivo inhibition of galactitol accumulation in diaphragm of rat at 53 mg/kg/day; assay type: functional
Rattus norvegicus [27] = assay: In vivo inhibition of galactitol accumulation in diaphragm of rat at 25 mg/kg/day; […]; assay type: functional, organism-based
Rattus norvegicus [28] = assay: In vivo inhibition of galactitol accumulation in sciatic nerves of rat at 49 mg/kg/day; assay type: functional; conditions: Sciatic nerve
Rattus norvegicus [29] = assay: In vivo inhibition of galactitol accumulation in sciatic nerves of rat at 26 mg/kg/day; assay type: functional; conditions: Sciatic nerve
Rattus norvegicus [30] = assay: In vivo inhibition of galactitol accumulation in diaphragm of rat at 49 mg/kg; assay type: functional
[31] = target: Aldo-keto reductase family 1 member B1 (Bos taurus) (UniProt P16116); assay: Inhibition of aldose reductase activity was measured on partially purified bovine lens preparations incubated in presence of 50 mM glucose; Not active
Rattus norvegicus [32] = organism: Rattus norvegicus; assay: Inhibition of galactitol accumulation in sciatic nerves of rat incubated in presence of 50 mM glucose.; assay type: functional, organism-based; conditions: Sciatic nerve
Rattus norvegicus [33] = assay: In vivo inhibition of galactitol accumulation in diaphragm of rat at 5 mg/kg/day; assay type: functional
Rattus norvegicus [34] = assay: In vivo inhibition of galactitol accumulation in sciatic nerves of galactose fed rat.; assay type: functional; conditions: Sciatic nerve
Rattus norvegicus [35] = assay: In vivo inhibition of galactitol accumulation in diaphragm of rat at 10 mg/kg/day; assay type: functional
Rattus norvegicus [36] = assay: In vivo inhibition of galactitol accumulation in the RBC of galactose fed rat.; assay type: functional
Rattus norvegicus [37] = assay: In vivo inhibition of galactitol accumulation in sciatic nerves of rat at 5 mg/kg/day; assay type: functional; conditions: Sciatic nerve
Rattus norvegicus [38] = organism: Rattus norvegicus; assay: Inhibition of galactitol accumulation in rat lens incubated in presence of 50 mM glucose; assay type: functional, organism-based; conditions: Lens of camera-type eye
Rattus norvegicus [39] = assay: In vivo inhibition of galactitol accumulation in sciatic nerves of rat at 10 mg/kg/day; assay type: functional; conditions: Sciatic nerve
Rattus norvegicus [40] = organism: Rattus norvegicus; assay: Inhibition of galactitol accumulation in rat RBC incubated in presence of 50 mM glucose; assay type: functional, organism-based
Rattus norvegicus [41] = organism: Rattus norvegicus; assay: Inhibition of aldose reductase activity was measured by measuring sorbitor accumulation in the sciatic nerves of STZ diabetic rat.; assay type: functional; conditions: Sciatic nerve
Rattus norvegicus [42] = assay: In vivo inhibition of galactitol accumulation in diaphragm of rat at 123 mg/kg/day; assay type: functional
Rattus norvegicus [43] = assay: In vivo inhibition of galactitol accumulation in sciatic nerves of rat at 123 mg/kg/day; assay type: functional; conditions: Sciatic nerve

Compound: COc1ccc2c(C(=O)N(C)CC(=O)O)ccc(Cc3ccccc3)c2c1Br
inhibition (Rattus norvegicus [1]): inactive
inhibition [2]: 80%
inhibition in vivo at 52 mg/kg/day (Rattus norvegicus [3]): 34%

Compound: COC(=O)N(CC(=O)O)C(=O)c1c(Br)ccc2c(C(F)(F)F)c(OC)ccc12
inhibition in vivo at 51 mg/kg/day (Rattus norvegicus [11]): 62%
inhibition [2]: 77%
inhibition in vivo at 51 mg/kg/day (Rattus norvegicus [12]): 69%
Inhibition (Rattus norvegicus [8]): 29%
Inhibition (Rattus norvegicus [9]): 68%

Compound: COc1ccc2c(C(=O)N(C)CC(=O)O)c(Br)ccc2c1C(F)(F)F
inhibition in vivo at 97 mg/kg/day (Rattus norvegicus [17]): 84%
inhibition in vivo at 97 mg/kg/day (Rattus norvegicus [18]): 44%
inhibition [2]: 63%
Inhibition (Rattus norvegicus [8]): 37%
Inhibition (Rattus norvegicus [9]): 67%

Compound: COc1ccc2c(C(=O)N(C)CC(=O)O)cccc2c1C(F)(F)F
inhibition in vivo at 25 mg/kg/day (Rattus norvegicus [22]): 33%
inhibition in vivo at 53 mg/kg/day (Rattus norvegicus [23]): 93%
inhibition in vivo at 75 mg/kg/day (Rattus norvegicus [24]): 56%
Inhibition (Rattus norvegicus [8]): 27%
inhibition in vivo at 75 mg/kg/day (Rattus norvegicus [25]): 27%
Inhibition (Rattus norvegicus [9]): 74%
inhibition in vivo at 53 mg/kg/day (Rattus norvegicus [26]): 94%
inhibition (Rattus norvegicus [27]): inactive

Compound: COc1ccc2c(C(=O)N(C)CC(=O)O)c(Cl)ccc2c1C(F)(F)F
inhibition in vivo at 49 mg/kg/day (Rattus norvegicus [28]): 83%
inhibition in vivo at 26 mg/kg/day (Rattus norvegicus [29]): 43%
inhibition [2]: 63%
inhibition in vivo at 49 mg/kg (Rattus norvegicus [30]): 80%
Inhibition (Rattus norvegicus [8]): 39%
Inhibition (Rattus norvegicus [9]): 67%

Compound: COc1ccc2c(C(=O)N(C)CC(N)=O)c(F)ccc2c1C(F)(F)F
inhibition [31]: inactive
IC50 (Rattus norvegicus [32]): 3.1 µM
inhibition in vivo at 5 mg/kg/day (Rattus norvegicus [33]): 32%
ED50 (Rattus norvegicus [34]): 5.5 mg/kg
inhibition in vivo at 10 mg/kg/day (Rattus norvegicus [35]): 41%
ED50 (Rattus norvegicus [36]): 8.5 mg/kg
inhibition in vivo at 5 mg/kg/day (Rattus norvegicus [37]): 39%
IC50 (Rattus norvegicus [38]): > 10 µM
inhibition in vivo at 10 mg/kg/day (Rattus norvegicus [39]): 59%
IC50 (Rattus norvegicus [40]): 12 µM
Inhibition (Rattus norvegicus [8]): 17%
Inhibition (Rattus norvegicus [9]): 80%
ED50 (Rattus norvegicus [41]): < 3 mg/kg

Compound: COc1ccc2c(C(=S)N(C)CC(=O)O)cc(C)cc2c1Br
inhibition (Rattus norvegicus [5]): inactive
inhibition in vivo at 123 mg/kg/day (Rattus norvegicus [42]): 91%
inhibition in vivo at 11 mg/kg/day (Rattus norvegicus [7]): 48%
inhibition [2]: 85%
Inhibition (Rattus norvegicus [8]): 43%
Inhibition (Rattus norvegicus [9]): 86%
inhibition in vivo at 123 mg/kg/day (Rattus norvegicus [43]): 86%

The next lines start with results.

inhibition [10]: inactive
Compound: COC(=O)N(CC(N)=O)C(=O)c1c(F)ccc2c(C(F)(F)F)c(OC)ccc12
inhibition (Rattus norvegicus [4]): inactive
inhibition (Rattus norvegicus [5]): inactive
inhibition in vivo at 16 mg/kg/day (Rattus norvegicus [6]): 33%
inhibition in vivo at 11 mg/kg/day (Rattus norvegicus [7]): 28%
Inhibition (Rattus norvegicus [8]): 4%
Inhibition (Rattus norvegicus [9]): 34%

inhibition [2]: 74%
Compound: COc1ccc2c(C(=O)N(C)CC(=O)O)cc(Cc3ccccc3)cc2c1Br
inhibition (Rattus norvegicus [13]): inactive
inhibition in vivo at 144 mg/kg (Rattus norvegicus [14]): 24%
Inhibition (Rattus norvegicus [8]): 44%
Inhibition (Rattus norvegicus [9]): 72%

inhibition [2]: 83%
Compound: COc1ccc2c(C(=O)N(C)CC(=O)O)cc(-c3ccccc3)cc2c1Br
inhibition in vivo at 132 mg/kg/day (Rattus norvegicus [15]): 24%
inhibition in vivo at 132 mg/kg/day (Rattus norvegicus [16]): 33%
Inhibition (Rattus norvegicus [8]): 28%
Inhibition (Rattus norvegicus [9]): 71%

inhibition [10]: inactive
Compound: CCN(CC)C(=O)COC(=O)CN(C(=O)OC)C(=O)c1c(F)ccc2c(C(F)(F)F)c(OC)ccc12
inhibition in vivo at 32 mg/kg/day (Rattus norvegicus [19]): 75%
inhibition in vivo at 11 mg/kg/day (Rattus norvegicus [7]): 36%
inhibition in vivo at 11 mg/kg/day (Rattus norvegicus [20]): 39%
inhibition in vivo at 32 mg/kg/day (Rattus norvegicus [21]): 75%
